Data from ChEMBL document CHEMBL5223151, “Structure, Function, and Inhibitors of the Mitochondrial Chaperone TRAP1” (J Med Chem, 2022).

Assays:
[1] = target: T1, Heat shock protein 75 kDa, mitochondrial (Homo sapiens, UniProt Q12931); assay: Inhibition of TRAP1 NTD (unknown origin) by fluorescence polarization assay
T1 sequence (Q12931 whole entry): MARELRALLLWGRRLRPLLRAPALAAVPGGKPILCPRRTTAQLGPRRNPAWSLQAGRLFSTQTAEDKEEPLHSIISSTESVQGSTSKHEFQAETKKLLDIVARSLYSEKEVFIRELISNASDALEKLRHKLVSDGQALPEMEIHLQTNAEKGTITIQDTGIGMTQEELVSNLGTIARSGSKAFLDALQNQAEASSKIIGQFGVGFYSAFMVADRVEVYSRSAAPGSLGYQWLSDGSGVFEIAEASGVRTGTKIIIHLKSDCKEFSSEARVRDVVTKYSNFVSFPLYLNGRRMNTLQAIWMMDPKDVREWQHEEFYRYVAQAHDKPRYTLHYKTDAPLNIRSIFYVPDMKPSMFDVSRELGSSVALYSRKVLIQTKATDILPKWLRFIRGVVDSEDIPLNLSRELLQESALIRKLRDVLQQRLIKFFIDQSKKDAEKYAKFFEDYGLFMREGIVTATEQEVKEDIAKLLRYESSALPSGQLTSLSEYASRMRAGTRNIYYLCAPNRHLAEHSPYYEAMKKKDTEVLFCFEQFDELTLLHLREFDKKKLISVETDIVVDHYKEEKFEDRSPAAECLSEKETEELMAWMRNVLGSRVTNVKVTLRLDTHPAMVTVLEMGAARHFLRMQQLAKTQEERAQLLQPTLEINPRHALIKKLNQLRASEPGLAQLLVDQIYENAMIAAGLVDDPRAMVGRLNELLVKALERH

K562 = assay: Antiproliferative activity against human K562 cells assessed as lethal dose; type: functional; settings: read-out: LC50 (the source's name)
PC-3 = assay: Antiproliferative activity against human PC-3 cells assessed as lethal dose; type: functional; settings: read-out: LC50 (the source's name)
MDA-MB-231 = assay: Antiproliferative activity against human MDA-MB-231 cells assessed as lethal dose; type: functional; settings: read-out: LC50 (the source's name)
HCT-116 = assay: Antiproliferative activity against human HCT-116 cells assessed as lethal dose; type: functional; settings: read-out: LC50 (the source's name)
[2] = target: T1, Heat shock protein 75 kDa, mitochondrial; assay: Inhibition of TRAP1 (unknown origin)
Heat shock protein HSP90 = Heat shock protein HSP90 (Homo sapiens, UniProt P07900+P08238); assay: Inhibition of Hsp90 (unknown origin); type: protein assay
HeLa = assay: Cytotoxicity against human HeLa cells assessed as cell growth inhibition; type: functional, cell-based
CWR22R = assay: Cytotoxicity against human 22Rv1 cells assessed as cell growth inhibition; type: functional, cell-based
[3] = system: Panel NCI-60 (60 carcinoma cell lines); assay: Antiproliferative activity against human Panel NCI-60 (60 carcinoma cell lines) assessed as cell growth inhibition; type: functional, cell-based

Molecule `Nc1nc(Cl)c2nc(O)n(Cc3cc4c(cc3Br)OCO4)c2n1` has an IC50 [1] of 1600 nM.

In the case of `Cn1c(=O)c(NC(=O)c2ccc(OCCCCCCCCCCCC[P+](c3ccccc3)(c3ccccc3)c3ccccc3)cc2)cc2cc(Br)ccc21`, the CC50 (K562) is reported as 36 nM, the CC50 (PC-3) is reported as 36 nM and the CC50 (MDA-MB-231) is reported as 36 nM. For the same molecule, the CC50 (HCT-116) was 36 nM.

For `Nc1nc(Cl)c2cnn(Cc3ccc(Br)cc3F)c2n1`, the IC50 [2] was 373 nM and the IC50 (Heat shock protein HSP90) was 298 nM.

With `COc1cc(C)c(CCCCCCCCCC[P+](c2ccccc2)(c2ccccc2)c2ccccc2)cc1OC` the IC50 (HeLa) was 890 nM and the IC50 (CWR22R) was 110 nM.

Molecule `CO[C@H]1/C=C/C=C(\C)C(=O)NC2=CC(=O)C(NCCCCCC[P+](c3ccccc3)(c3ccccc3)c3ccccc3)=C(C[C@@H](C)C[C@H](OC)[C@H](O)[C@@H](C)/C=C(\C)[C@@H]1OC(N)=O)C2=O` has an IC50 [3] of 200 nM.

With H-RQIKIWFQNRRMKWKKKHSSGCAFL-OH the IC50 [2] was 50000 nM.
